{"source": "patent US11034653B2", "about": "“Crystal form of estrogen receptor inhibitor and preparation method therefor” (LUOXIN PHARMACEUTICAL (SHANGHAI) CO., LTD., priority 2017, dated 2021)", "key": {"breast cancer patients": {"system": "breast cancer patients", "details": "intramuscular injection; cited from earlier work"}, "[1]": {"details": "cited from earlier work"}, "[2]": {"experiment": "Hygroscopicity study by dynamic vapor sorption (DVS)", "format": "physicochemical", "details": "25° C./80% RH", "description": "Dynamic Vapor Sorption (DVS)\nInstrument model: SMS DVS Advantage dynamic vapor sorption analyzer\nTest conditions: samples (10-15 mg) were disposed in the DVS sample tray for testing.\nThe detailed DVS parameters were as follows:\nBalance: dm/dt=0.01%/min (shortest: 10 min, longest: 180 min)\nDrying: drying for 120 min at 0% RH\nRH (%) test step range: 0%-90%-0%\nThe hygroscopicity evaluation is classified as follows:\nSMS DVS Advantage dynamic vapor sorption analyzer"}, "[3]": {"experiment": "Long-term crystal form stability test under high temperature and high humidity conditions (XRPD)", "format": "physicochemical", "details": "40° C., 75% RH, 10th day and 31th day"}, "[4]": {"experiment": "Solid stability test under high humidity and light irradiation conditions (XRPD, HPLC)", "format": "physicochemical", "description": "High Performance Liquid Chromatograph (HPLC)\nThe bottles containing samples placed under high humidity condition were sealed with aluminum foil. Small holes were made in the aluminum foil to ensure that the samples can fully contact with the ambient air. The samples were tested on the 10th day. The bottles containing samples placed under light condition were left open and the samples were exposed to a light source, and tested after being irradiated enough energy. The test results were compared with the initial test results on day 0."}}}
{"smiles": "C[C@]12CC[C@@H]3c4ccc(O)cc4C[C@@H](CCCCCCCCC[S+]([O-])CCCC(F)(F)C(F)(F)F)[C@H]3[C@@H]1CC[C@@H]2O", "note": "(some centres unmarked) [fulvestrant]", "values": [{"measurement": "breast cancer patients who have shown a clinical response", "setting": "breast cancer patients", "result": "about 50%"}, {"measurement": "oral bioavailability", "setting": "[1]", "result": "zero"}]}
{"smiles": "CC/C(=C(/c1ccc(/C=C/C(=O)O)cc1)c1[nH]c2ccccc2c1Cl)c1ccc(F)cc1Cl", "values": [{"measurement": "Hygroscopicity classification", "setting": "[2]", "result": "almost non-hygroscopic"}, {"measurement": "ΔW, weight increase caused by hygroscopy", "setting": "[2]; DVS", "result": 0.1687, "unit": "%"}, {"measurement": "Crystal form stability (conclusion)", "setting": "[3]", "result": "stable"}, {"measurement": "Crystal form (XRPD)", "setting": "[4]; 0 day", "result": "Crystal form A"}, {"measurement": "Purity (%)", "setting": "[4]; 0 day", "result": 96.99, "unit": "%"}, {"measurement": "Related substance at relative retention time 0.97 (HPLC)", "setting": "[4]; 0 day", "result": 0.21}, {"measurement": "Related substance at relative retention time 1.02 (HPLC)", "setting": "[4]; 0 day", "result": 0.36}, {"measurement": "Related substance at relative retention time 1.05 (HPLC)", "setting": "[4]; 0 day", "result": 0.30}, {"measurement": "Total content of related substances (%)", "setting": "[4]; 0 day", "result": 0.87, "unit": "%"}, {"measurement": "Crystal form (XRPD)", "setting": "[4]; High humidity (room temperature/relative humidity 92.5%, exposed), 10th day", "result": "Crystal form A"}, {"measurement": "Related substance at relative retention time 0.97 (HPLC)", "setting": "[4]; High humidity, 10 days", "result": 0.22}, {"measurement": "Related substance at relative retention time 1.02 (HPLC)", "setting": "[4]; High humidity, 10 days", "result": 0.23}, {"measurement": "Related substance at relative retention time 1.05 (HPLC)", "setting": "[4]; High humidity, 10 days", "result": 0.31}, {"measurement": "Total content of related substances (%)", "setting": "[4]; High humidity, 10 days", "result": 0.77, "unit": "%"}, {"measurement": "Purity (%)", "setting": "[4]; Light irradiation", "result": 101.09, "unit": "%"}, {"measurement": "Related substance at relative retention time 0.88 (HPLC)", "setting": "[4]; Light irradiation", "result": 0.05}, {"measurement": "Related substance at relative retention time 0.97 (HPLC)", "setting": "[4]; Light irradiation", "result": 0.22}, {"measurement": "Related substance at relative retention time 0.98 (HPLC)", "setting": "[4]; Light irradiation", "result": 0.17}, {"measurement": "Related substance at relative retention time 1.02 (HPLC)", "setting": "[4]; Light irradiation", "result": 0.23}, {"measurement": "Related substance at relative retention time 1.04 (HPLC)", "setting": "[4]; Light irradiation", "result": 0.13}, {"measurement": "Related substance at relative retention time 1.05 (HPLC)", "setting": "[4]; Light irradiation", "result": 0.17}, {"measurement": "Total content of related substances (%)", "setting": "[4]; Light irradiation", "result": 0.98, "unit": "%"}, {"measurement": "Crystal form (XRPD)", "setting": "[4]; Light irradiation (1ICH, exposed)", "result": "Crystal form A"}, {"measurement": "Solid stability (conclusion)", "setting": "[4]; high humidity and light irradiation condition", "result": "stable"}]}
